Experimental data published in US10039729B2, “Use of kukoamine A and kukoamine B” (Tianjin Chase Sun Pharmaceutical Co., Ltd., priority 2010, dated 2018).

Key:
[1] = tested on: RAW264.7 cells; experiment: Western blot of IκB-α and p38 phosphorylation in RAW264.7 cells; assay type: cell-based, murine
Protocol: Extraction of cytoplasmic protein: RAW264.7 cells were diluted to 1×10^6/ml in DMEM supplemented with 10% (v/v) NCS; 5 ml of the above suspension was transferred into cell culture bottles and cultured at 37° C. in a 5% CO2 humidified incubator for 4 h; a preliminary experiment was first performed, in which RAW264.7 cells were stimulated by LPS (100 ng/ml), CpG DNA (10 μg/ml), TNF-α (50 ng/ml) or IL-1β (50 ng/ml) for 15, 30, 45 and 60 min respectively; for the purpose of formal experiment a medium group, a KB control group, stimulation group (LPS, CpG DNA, TNF-α or IL-1β) and a KB treatment group (LPS+KB group, CpG DNA+KB group, TNF-α+KB group and IL-1β+KB group) were established; no reagent was added in medium group; KB control group was only added with KB (200 μM); stimulation group was added with LPS (100 ng/ml), CpG DNA (10 μg/ml), TNF-α (50 ng/ml) or IL-1β (50 ng/ml); KB treatment group was added with KB (100, 200 μM) in the meantime of adding LPS, CpG DNA, TNF-α or IL-1β; the duration time of cell culture was based on the preliminary experiment (30 min); cells were washed with PBS and centrifuged to collect cells; supernatant was sucked and discarded; the cell pellet was collected for further experiment; each 20 μl cell pellet was added with 200 μl cytoplasm protein extraction reagents supplemented with PMSF, shook vigorously for 5 seconds to completely suspend and disperse the cell pellet, chilled for 10 to 15 min in an ice bath, centrifuged at 12,000 g at 4° C. for 5 min; the supernatant was instantly transferred into a precooled plastic tube, which was the cytoplasmic protein obtained by extraction;
(3) Sample preparation: Protein sample was mixed with 5× concentrated loading buffer in proportion of 4:1, and denatured at 100° C. for 5 min;
(5) Loading: Sample loading volume was adjusted according to protein concentration to ensure 20 μg protein content of each sample; samples were loaded with microsyringe (5 μl protein molecular weight marker were loaded); […]

[2] = tested on: mice challenged by heat-killed Escherichia coli; experiment: Protection on mice challenged by lethal dose of heat-killed Escherichia coli; assay type: in vivo, Kunming mice
Protocol: Preparation of heat-killed Escherichia coli (E. coli) ATCC 35218: Bacteria culture was performed according to Clinical Laboratory Procedures. Single bacterial colony of E. coli from LB agar plates were picked and transferred into 10 mL sterile liquid of LB broth using a sterile inoculating loop, and cultivated at 37° C. in a shaker (250 rpm). After medium become turbid, these culture medium were then transferred to 2000 mL of fresh LB medium and cultivated at 37° C. in a shaker (250 rpm) for 12 h. The suspension was collected, transferred into 1000 ml centrifuge tube, and centrifuged at 5000 rpm for 15 min. The supernatant was discarded. The bacteria were collected, washed and resuspended into sterile saline, and then centrifuged again under the same condition. Above-mentioned process was repeated thrice. The bacteria pellet was resuspended with a pipet in 50 ml sterile saline, transferred into 100 ml saline bottle, and boiled in electric furnace for 30 min. Then the suspension of heat-killed Escherichia coli was obtained. The suspension of E. coli was diluted by 100 fold, and measured OD value at 600 nm on nucleic acid protein analyzer. Conversion was made according to the regression equation of OD value and concentration, and the suspension was diluted according to the conversion result. Then the operating fluids for mice injection were obtained.
Observation of CL-4b protection on mice challenged by heat-killed Escherichia coli: A total of […] Kunming mice (18˜20 g), half male and half female, were divided into three groups randomly: CL-4b control group, heat-killed E. coli group and CL-4b treatment group. Each group has 10 mice, half male and half female. CL-4b control group was injected with CL-4b (60 mg/kg) and sterile saline; heat-killed E. coli group was injected with heat-killed Escherichia coli (1.0×10^10 CFU/ml) and sterile saline; CL-4b treatment group was injected with CL-4 ([…]) at 10 min after heat-killed E. coli injection. The injection volume of each solution was 200 μl per 20 g body weight via tail vein. […]
(1) Single dose experiment: Experiment 1: A total of 40 Kunming mice (18-20 g), half male and half female, were divided into two groups randomly, heat-killed E. coli control group and KB (30 mg/kg) treatment group; each group has 20 mice; after animal weighing, heat-killed E. coli group was injected with heat-killed Escherichia coli (200 μl per 20 g body weight) and sterile saline (200 μl per 20 g body weight); KB treatment group was injected with KB (200 μl per 20 g body weight) at 5 min after heat-killed E. coli was injected; the injection doses of heat-killed E. coli were 1.0×10^11 CFU/kg, and injection doses of KB were 30 mg/kg. […]

[3] = KB 100 and 200 μM, 30 min, western blot
[4] = single dose KB 60 mg/kg, E. coli 1.0×10^11 CFU/kg

NCCCN(CCCCNCCCNC(=O)CCc1ccc(O)c(O)c1)C(=O)CCc1ccc(O)c(O)c1 [KB, Kukoamine B]
expression of IκB-α and p-IκB-α, KB alone ([1]; KB 200 μM alone vs medium group): had no influence | degradation of IκB-α and up-regulated expression of p-IκB-α induced by LPS and CpG DNA [1, 3]: both were significantly inhibited | p-p38 expression induced by LPS and CpG DNA [1, 3]: significantly inhibited | survival rates, multiple dose ([2]; KB 1.25, 2.5 and 5 mg/kg every 8 h for 3 days): improve survival rates | mortality rate in 7 days, single dose ([2]; KB 15, 30 and 60 mg/kg 5 min after heat-killed E. coli): decreased with the increasing doses of KB | protective effect, KB given after 2 h (4, 6 and 8 h) [2, 4]: no longer has a significant protective effect | survival rate, KB given 2 h after heat-killed E. coli [2, 4]: still can increase the survival rate
